Key:
Type in all cases: in vivo
[1] = test system: Myzus persicae (Green Peach Aphid); assay: Example B8: Myzus persicae intrinsic activity, sucrose solution under Parafilm, 24-well; details: 120 h, test rate of 12 ppm, 5 days after infestation
Method in brief: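 Compounds, diluted from 10′000 ppm DMSO stocks, were mixed with sucrose solution in wells sealed with stretched Parafilm. Aphid-infested pea seedlings were placed on the Parafilm, and the covered plate was turned upside down. Mortality was scored 5 days after infestation.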

[2] = test system: Plutella xylostella (Diamondback Moth); assay: Example B14: Plutella xylostella, artificial diet in 96-well plates, eggs; details: 216 h, application rate of 500 ppm, 9 days after infestation
Method in brief: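 Artificial diet in microtiter wells treated with aqueous dilutions of DMSO stocks, dried, then infested with ~30 eggs per well; hatching L1 larvae feed on treated diet. Mortality scored 9 days after infestation.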

[3] = test system: Myzus persicae (Green Peach Aphid); assay: Example B13: Myzus persicae, sucrose solution under Parafilm, 96-well; details: 120 h, application rate of 50 ppm, 5 days after infestation
Method in brief: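 Compounds from 10′000 ppm DMSO stocks mixed into sucrose solution, with aphids feeding through a Parafilm membrane in inverted plates. Mortality assessed 5 days after infestation.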

[4] = test system: Plutella xylostella (Diamond Back Moth); assay: Example B5: Plutella xylostella, artificial diet in 24-well plates, eggs; details: 192 h, application rate of 200 ppm, 8 days after infestation, in comparison to untreated samples, read-out: effect in at least one of the two categories (mortality or growth inhibition)
Method in brief: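 Artificial diet in 24-well plates treated with aqueous test solutions made from 10′000 ppm DMSO stocks, dried, then infested with Plutella eggs. Mortality and growth inhibition scored against untreated samples 8 days after infestation.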

[5] = test system: Myzus persicae (Green Peach Aphid); assay: Example B6: Myzus persicae feeding/contact activity, sunflower leaf discs; details: foliar, 144 h, application rate of 200 ppm, aphid population of mixed ages, 6 days after infestation
Procedure: Example B6: Myzus persicae (Green Peach Aphid): Feeding/Contact Activity
(§1) Sunflower leaf discs were placed onto agar in a 24-well microtiter plate and sprayed with aqueous test solutions prepared from 10′000 ppm DMSO stock solutions. After drying, the leaf discs were infested with an aphid population of mixed ages. The samples were assessed for mortality 6 days after infestation.

[6] = test system: Myzus persicae (Green Peach Aphid); assay: Example B7: Myzus persicae systemic activity, pea seedling roots in test solution; details: 144 h, test rate of 24 ppm, 6 days after placing seedlings into test solutions
Procedure: Example B7: Myzus persicae (Green Peach Aphid): Systemic Activity
Roots of pea seedlings infested with an aphid population of mixed ages were placed directly into aqueous test solutions prepared from 10′000 DMSO stock solutions. The samples were assessed for mortality 6 days after placing seedlings into test solutions.

[7] = test system: Thrips tabaci (Onion thrips); assay: Example B12: Thrips tabaci feeding/contact activity, sunflower leaf discs; details: foliar, 144 h, application rate of 200 ppm, thrips population of mixed ages, 6 days after infestation
Procedure: Example B12: Thrips tabaci (Onion thrips): Feeding/Contact Activity
as §1, with “on” for “onto”, “in” for “in a”, “plates” for “plate”, “drying” for “drying,”, “a thrips” for “an aphid”

[8] = test system: Diabrotica balteata (Corn Root Worm); assay: Example B1: Diabrotica balteata, maize sprouts sprayed, L2 larvae; details: 96 h, application rate of 200 ppm, 4 days after infestation, in comparison to untreated samples, read-out: effect in at least one of the two categories (mortality or growth inhibition)
Method in brief: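 Maize sprouts on agar sprayed with aqueous test solutions made from 10′000 ppm DMSO stocks, dried, then infested with 6–10 L2 larvae per well. Mortality and growth inhibition scored against untreated samples 4 days after infestation.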

[9] = test system: Euschistus heros (Neotropical Brown Stink Bug); assay: Example B2: Euschistus heros, soybean leaves sprayed, N2 nymphs; details: 120 h, application rate of 200 ppm, 5 days after infestation, in comparison to untreated samples, read-out: effect in at least one of the two categories (mortality or growth inhibition)
Procedure: Example B2: Euschistus heros (Neotropical Brown Stink Bug)
Soybean leaves on agar in 24-well microtiter plates were sprayed with aqueous test solutions prepared from 10′000 ppm DMSO stock solutions. After drying the leaves were infested with N2 nymphs. The samples were assessed for mortality and growth inhibition in comparison to untreated samples 5 days after infestation.
The following compounds gave an effect of at least 80% in at least one of the two categories (mortality or growth inhibition) at an application rate of 200 ppm: • P1, P2, P3, P7, P11, P12, P16, P17, P18, P22, P25, P29, P32, P33, P37, P38

[10] = test system: Spodoptera littoralis (Egyptian Cotton Leaf Worm); assay: Example B9: Spodoptera littoralis, cotton leaf discs sprayed, L1 larvae; details: foliar, 72 h, application rate of 200 ppm, five L1 larvae, 3 days after infestation, in comparison to untreated samples, read-out: control in at least one of the categories (mortality, anti-feedant effect, or growth inhibition)
Method in brief: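 Cotton leaf discs on agar sprayed with aqueous solutions made from 10′000 ppm DMSO stocks, dried, then infested with five L1 larvae. Mortality, anti-feeding and growth inhibition assessed against untreated samples 3 days after infestation; control counted when any category exceeded untreated.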

[11] = test system: Spodoptera littoralis (Egyptian Cotton Leaf Worm); assay: Example B10: Spodoptera littoralis, uptake by lettuce roots from agar, eggs; details: 144 h, test rate of 12.5 ppm, lettuce root uptake, 6 days after infestation, in comparison to untreated samples, read-out: effect in at least one of the three categories (mortality, anti-feeding, or growth inhibition)
Description: Example B10: Spodoptera littoralis (Egyptian Cotton Leaf Worm)
Test compounds were applied by pipette from 10′000 ppm DMSO stock solutions into 24-well plates and mixed with agar. Lettuce seeds were placed onto the agar and the multi well plate was closed by another plate which contained also agar. After 7 days the compound was absorbed by the roots and the lettuce grew into the lid plate. The lettuce leaves were then cut off into the lid plate. Spodoptera eggs were pipetted through a plastic stencil onto a humid gel blotting paper and the lid plate was closed with it. The samples were assessed for mortality, anti-feedant effect and growth inhibition in comparison to untreated samples 6 days after infestation.
The following compounds gave an effect of at least 80% in at least one of the three categories (mortality, anti-feeding, or growth inhibition) at a test rate of 12.5 ppm: • P3, P15, P32

[12] = test system: Chilo suppressalis (Striped Rice Stemborer); assay: Example B4: Chilo suppressalis, artificial diet, L2 larvae; details: 144 h, application rate of 200 ppm, 6 days after infestation, in comparison to untreated samples, read-out: control in at least one of the categories (mortality, anti-feedant effect, or growth inhibition)
Method in brief: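 Artificial diet was treated with aqueous dilutions made from 10'000 ppm DMSO stocks, dried, then infested with L2 larvae at 6–8 per well. Mortality, antifeedant effect and growth inhibition were assessed against untreated samples 6 days after infestation.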

[13] = test system: Tetranychus urticae (Two-Spotted Spider Mite); assay: Example B11: Tetranychus urticae feeding/contact activity, bean leaf discs; details: foliar, 192 h
Procedure: Example B11: Tetranychus urticae (Two-Spotted Spider Mite): Feeding/Contact Activity
Bean leaf discs on agar in 24-well microtiter plates were sprayed with aqueous test solutions prepared from 10′000 ppm DMSO stock solutions. After drying the leaf discs were infested with a mite population of mixed ages. The samples were assessed for mortality on mixed population (mobile stages) 8 days after infestation.

CC(=O)Nc1nc(C(C)N(C)C(=O)c2cc(C(F)(F)F)cc(C(F)(F)F)c2)n(-c2ncccn2)n1 (stereo not shown) [Compound P17, N-[1-(5-acetamido-2-pyrimidin-2-yl-1,2,4-triazol-3-yl)ethyl]-N-methyl-3,5-bis(trifluoromethyl) benzamide]
≥ 80%: mortality at 12 ppm [1] | mortality at 500 ppm [2] | mortality at 50 ppm [3] | percent effect (mortality or growth inhibition) at 200 ppm [4] | mortality at 200 ppm [5] | mortality at 24 ppm [6] | mortality at 200 ppm [7] | percent effect (mortality or growth inhibition) at 200 ppm [8] | percent effect (mortality or growth inhibition) at 200 ppm [9] | percent control (mortality, anti-feedant effect or growth inhibition) at 200 ppm [10]

CC(c1nc(Br)nn1-c1ncccn1)N(C)C(=O)c1cc(C(F)(F)F)cc(C(F)(F)F)c1 (stereo not shown) [Compound P3, N-[1-(5-bromo-2-pyrimidin-2-yl-1,2,4-triazol-3-yl)ethyl]-N-methyl-3,5-bis(trifluoromethyl)benzamide]
≥ 80%: mortality at 12 ppm [1] | mortality at 500 ppm [2] | mortality at 50 ppm [3] | percent effect (mortality or growth inhibition) at 200 ppm [4] | percent effect (mortality, anti-feeding or growth inhibition) at 12.5 ppm [11] | mortality at 200 ppm [5] | percent control (mortality, anti-feedant effect or growth inhibition) at 200 ppm [12] | percent effect (mortality or growth inhibition) at 200 ppm [8] | percent effect (mortality or growth inhibition) at 200 ppm [9] | percent control (mortality, anti-feedant effect or growth inhibition) at 200 ppm [10]

CC(c1nc(Cl)nn1-c1ncccn1)N(C)C(=O)c1cc(C(F)(F)F)cc(C(F)(F)F)c1 (stereo not shown) [Compound P15, N-[1-(5-chloro-2-pyrimidin-2-yl-1,2,4-triazol-3-yl)ethyl]-N-methyl-3,5-bis(trifluoromethyl)benzamide]
≥ 80%: mortality at 500 ppm [2] | mortality at 50 ppm [3] | percent effect (mortality or growth inhibition) at 200 ppm [4] | percent effect (mortality, anti-feeding or growth inhibition) at 12.5 ppm [11] | percent effect (mortality or growth inhibition) at 200 ppm [8] | percent control (mortality, anti-feedant effect or growth inhibition) at 200 ppm [10]

COCCOc1nc(C(C)NC(=O)c2cc(C(F)(F)F)cc(C(F)(F)F)c2)n(-c2ncccn2)n1 (stereo not shown) [Compound P36, N-[1-[5-(2-methoxyethoxy)-2-pyrimidin-2-yl-1,2,4-triazol-3-yl]ethyl]-3,5-bis(trifluoromethyl) benzamide]
≥ 80%: mortality at 12 ppm [1] | mortality at 200 ppm [13] | percent effect (mortality or growth inhibition) at 200 ppm [4] | percent control (mortality, anti-feedant effect or growth inhibition) at 200 ppm [12] | percent control (mortality, anti-feedant effect or growth inhibition) at 200 ppm [10]

CC(NC(=O)c1cc(Cl)cc(OC(F)(F)F)c1)c1nc(Br)nn1-c1ncccn1 (stereo not shown) [Compound P32, N-[1-(5-bromo-2-pyrimidin-2-yl-1,2,4-triazol-3-yl)ethyl]-3-chloro-5-(trifluoromethoxy)ben zamide]
≥ 80%: mortality at 12 ppm [1] | mortality at 500 ppm [2] | mortality at 50 ppm [3] | percent effect (mortality or growth inhibition) at 200 ppm [4] | percent effect (mortality, anti-feeding or growth inhibition) at 12.5 ppm [11] | percent control (mortality, anti-feedant effect or growth inhibition) at 200 ppm [12] | percent effect (mortality or growth inhibition) at 200 ppm [8] | percent effect (mortality or growth inhibition) at 200 ppm [9] | percent control (mortality, anti-feedant effect or growth inhibition) at 200 ppm [10]

From patent US12152020B2, “Pesticidally active azole-amide compounds” (SYNGENTA PARTICIPATIONS AG, priority 2018, dated 2024)
